Measured values from patent US10703746B2, “Mutant IDH1 inhibitors useful for treating cancer” (THE UNITED STATES OF AMERICA, AS REPRESENTED BY THE …, priority 2014, dated 2020).

Key:
IDH1 R132H = IDH1 R132H (Homo sapiens, UniProt O75874, R132H); experiment: IDH1 R132H enzymatic assay (NADPH depletion coupled to diaphorase/resazurin); format: biochemical
IDH1 R132C = IDH1 R132C (Homo sapiens, UniProt O75874, R132C); experiment: IDH1 R132C enzymatic assay (NADPH depletion coupled to diaphorase/resazurin); format: biochemical
Chain of IDH1 R132C (O75874 whole entry R132C): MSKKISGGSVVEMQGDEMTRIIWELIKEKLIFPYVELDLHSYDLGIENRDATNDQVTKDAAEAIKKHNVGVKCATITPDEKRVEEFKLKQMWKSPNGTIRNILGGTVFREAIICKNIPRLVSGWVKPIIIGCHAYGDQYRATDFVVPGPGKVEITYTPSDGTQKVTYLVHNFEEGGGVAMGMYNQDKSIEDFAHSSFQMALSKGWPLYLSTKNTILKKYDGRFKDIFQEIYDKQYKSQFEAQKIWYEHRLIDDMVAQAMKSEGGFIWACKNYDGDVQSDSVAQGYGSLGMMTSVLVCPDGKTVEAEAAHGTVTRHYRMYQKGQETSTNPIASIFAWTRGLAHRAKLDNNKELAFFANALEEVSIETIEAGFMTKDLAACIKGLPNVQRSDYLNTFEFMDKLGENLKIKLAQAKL
Procedure, shortened: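 NADPH depletion, read via diaphorase/resazurin coupling, after adding substrate at 0.6 mM α-KG and 0.012 mM NADPH. Beforehand, 0.00032 mg/mL enzyme sat with compound 30 min at room temperature in pH 6.5 potassium phosphate buffer with MgCl2, glycerol and BSA.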

[1] = IDH1 R132H enzymatic inhibition, IC50 class
[2] = IDH1 R132C enzymatic inhibition, IC50 class
[3] = enzymatic inhibition, IDH1 R132H
[4] = enzymatic inhibition, IDH1 R132C

Chain of IDH1 R132H (O75874 whole entry R132H): as the sequence (O75874 whole entry R132C) above, with C132H counted along it

| SMILES | IC50 (IDH1 R132H; [1]) | IC50 (IDH1 R132C; [2]) | IC50 (IDH1 R132H; [3]) | IC50 (IDH1 R132C; [4]) |
| --- | --- | --- | --- | --- |
| CCc1cccc(CC)c1-n1c(C(C)C)c(C(=O)N[C@H](C)CO)cc(-c2nc(-c3ccc(Cl)cc3)cs2)c1=O [Compound 47] | 1000 to 5000 nM | 1000 to 5000 nM | – | – |
| Cc1ccc(C(=O)O)cc1-n1c2c(cc(-c3nc(-c4ccc(Cl)cc4)cs3)c1=O)C(=O)CC(C)(C)C2 [Compound 166] | > 20000 nM | 5000 to 20000 nM | – | – |
| CCc1cccc(CC)c1-n1c(C=C(C)C)c(C(=O)N2CCNC(=O)C2C)cc(-c2nc(-c3ccc(Cl)cc3)cs2)c1=O (stereo not drawn) [Compound 526] | – | – | < 300 nM | < 300 nM |
| CCc1cccc(CC)c1-n1c(CO)c(C(=O)NC)cc(-c2nc(-c3ccc(Cl)cc3)cs2)c1=O [Compound 100] | 1000 to 5000 nM | 1000 to 5000 nM | – | – |
| CCc1cccc(CC)c1-n1c(C)c(C(=O)NC2CCCNC2)cc(-c2nc(-c3ccc(Cl)cc3)cs2)c1=O (stereo not drawn) [Compound 114] | 1000 to 5000 nM | 300 to 1000 nM | – | – |
| CCOc1ncc(F)cc1-n1c(C=C(C)C)c(C(=O)N2CCNCC2)cc(-c2nc(-c3ccc(C(F)(F)F)cc3)cs2)c1=O [Compound 568] | – | – | < 300 nM | < 300 nM |
| COc1ccc(OC)c(-n2c(=O)c(-c3nc(-c4ccc(Cl)cc4)cs3)cc3c(OC)cncc32)c1 [Compound 289] | > 20000 nM | 5000 to 20000 nM | – | – |
| CC1(C)CC(=O)c2cc(-c3nc(-c4ccc(Cl)cc4)cs3)c(=O)n(-c3ccccc3CN)c2C1 [Compound 5] | 5000 to 20000 nM | 5000 to 20000 nM | – | – |
| CCc1cccc(CC)c1-n1c(C(C)C)c(C(=O)NC[C@@H](C)O)cc(-c2nc(-c3ccc(Cl)cc3)cs2)c1=O [Compound 101] | 1000 to 5000 nM | 300 to 1000 nM | – | – |
| COc1cccc(C)c1-n1c2c(cc(-c3nc(-c4ccc(Cl)cc4)cs3)c1=O)C(=O)CC(C)(C)C2 [Compound 52] | 1000 to 5000 nM | 1000 to 5000 nM | – | – |
| CCc1cccc(CC)c1-n1c2c(cc(-c3nc(-c4ccc(C)cc4)cs3)c1=O)C(=O)CC(C)(C)C2 [Compound 233] | 300 to 1000 nM | 300 to 1000 nM | – | – |
| CCOc1ncc(C)cc1-n1c(C=C(C)C)c(C(=O)N2CCNCC2)cc(-c2nc(-c3ccc(C(F)(F)F)nc3)cs2)c1=O [Compound 639] | < 300 nM | 300 to 1000 nM | – | – |
| CCc1cccc(CC)c1-n1c(-c2ccccc2)c(C#N)cc(-c2nc(-c3ccc(Cl)cc3)cs2)c1=O [Compound 170] | 5000 to 20000 nM | 1000 to 5000 nM | – | – |
| CCc1cccc(CC)c1-n1c(C=C(C)C)c(C(=O)N2CCNC3(CC3)C2)cc(-c2nc(-c3ccc(Cl)cc3)cs2)c1=O [Compound 431] | – | – | < 300 nM | < 300 nM |
| CCc1cccc(CC)c1-n1c(CC(C)C)c(C(=O)N2CCNCC2)cc(-c2nc(-c3ccc(Cl)cc3)c(C(=O)NC)s2)c1=O [Compound 454] | – | – | 300 to 1000 nM | 1000 to 5000 nM |
| CCc1cccc(CC)c1-n1c(C=C(C)C)c(C(=O)N2CCNCC2)cc(-c2nc(-c3ccc(C4CC4)cc3)cs2)c1=O [Compound 620] | < 300 nM | < 300 nM | – | – |
| CCc1cccc(C(=O)O)c1-n1c2c(cc(-c3nc(-c4ccc(Cl)cc4)cs3)c1=O)C(=O)CC(C)(C)C2 [Compound 58] | 300 to 1000 nM | 1000 to 5000 nM | – | – |
| CCc1cccc(CC)c1-n1c(C=C(C)C)c(C(=O)N2CCNC(C(C)C)C2)cc(-c2nc(-c3ccc(Cl)cc3)cs2)c1=O (stereo not drawn) [Compound 489] | – | – | < 300 nM | < 300 nM |
| CCc1cccc(CC)c1-n1c(C=C(C)C)c(C(=O)N2CCNCC2)cc(-c2nc(-c3ccc(OC4CC4)cc3)cs2)c1=O [Compound 605] | – | – | < 300 nM | < 300 nM |
| CCc1cccc(CC)c1-n1c(CC(C)C)c(C(=O)N2CCNCC2)cc(-c2nc(-c3ccc(C(=O)N(C)C)cc3)c(C)s2)c1=O [Compound 419] | – | – | 1000 to 5000 nM | 1000 to 5000 nM |
| COc1ccc([N+](=O)[O-])cc1-n1c2c(cc(-c3nc(-c4ccc(Cl)cc4)cs3)c1=O)C(=O)CC(C)(C)C2 [Compound 128] | 1000 to 5000 nM | 1000 to 5000 nM | – | – |
| COc1ccccc1-n1c2c(cc(-c3nc(-c4ccc(Cl)cc4)cs3)c1=O)C(=O)CCC2 [Compound 503] | – | – | 1000 to 5000 nM | 1000 to 5000 nM |
| CCc1cccc(CC)c1-n1c(CC(C)C)c(C(=O)N2CCNCC2)cc(-c2nc(-c3ccc(N4CCNCC4)cc3)c(C)s2)c1=O [Compound 137] | > 20000 nM | > 20000 nM | – | – |
| CCc1cccc(CC)c1-n1c(CC(C)C)c(C(=O)N2CCNCC2C)cc(-c2nc(-c3ccc(Cl)cc3)cs2)c1=O (stereo not drawn) [Compound 43] | 300 to 1000 nM | < 300 nM | – | – |
| CCc1cccc(CC)c1-n1c(C=C(C)C)c(C(=O)N2CCNCC2)cc(-c2nn(-c3ccc(Cl)cc3)cc2Cl)c1=O [Compound 345] | 1000 to 5000 nM | 1000 to 5000 nM | – | – |
| COc1ncc(C)cc1-n1c(C=C(C)C)c(C(=O)N2CCNCC2)cc(-c2ccn(-c3ccc(C(F)(F)F)cc3)n2)c1=O [Compound 541] | – | – | < 300 nM | 1000 to 5000 nM |
| CCc1cccc(CC)c1-n1c(C)c(C(=O)N2CCC(N)C2)cc(-c2nc(-c3ccc(Cl)cc3)cs2)c1=O (stereo not drawn) [Compound 245] | 1000 to 5000 nM | 1000 to 5000 nM | – | – |

| SMILES | IC50 (IDH1 R132H; [1]) | IC50 (IDH1 R132C; [2]) | IC50 (IDH1 R132H; [3]) | IC50 (IDH1 R132C; [4]) |
| --- | --- | --- | --- | --- |
| CC(c1ccccc1)n1c2c(cc(-c3nc(-c4ccc(Cl)cc4)cs3)c1=O)C(=O)CC(C)(C)C2 (stereo not drawn) [Compound 11] | > 20000 nM | 5000 to 20000 nM | – | – |
| CC(C)=Cc1c(C(=O)N2CCNCC2)cc(-c2nc(-c3ccc(Cl)cc3)cs2)c(=O)n1-c1cc(Cl)ccc1Cl [Compound 359] | < 300 nM | < 300 nM | – | – |
| CCc1cccc(CC)c1-n1c(CC(C)C)c(C(=O)N2CCCC(CO)C2)cc(-c2nc(-c3ccc(Cl)cc3)cs2)c1=O (stereo not drawn) [Compound 34] | 1000 to 5000 nM | 300 to 1000 nM | – | – |
| CC(C)=Cc1c(C(=O)N2CCNCC2)cc(-c2nc(-c3ccc(Cl)cc3)cs2)c(=O)n1-c1cc(F)ccc1Cl [Compound 409] | – | – | < 300 nM | < 300 nM |
| CCc1cccc(CC)c1-n1c2c(cc(-c3nc(C4=CCNCC4)c(C)s3)c1=O)C(=O)CC(C)(C)C2 [Compound 298] | > 20000 nM | 5000 to 20000 nM | – | – |
| CCc1cccc(CC)c1-n1c(C)c(C(=O)N2CCNCC2)cc(-c2nc(-c3ccc(Cl)cc3)cs2)c1=O [Compound 300] | < 300 nM | 300 to 1000 nM | – | – |
| COc1ccccc1Cn1c2c(cc(-c3nc(-c4ccc(Cl)cc4)cs3)c1=O)C(=O)CC(C)(C)C2 [Compound 203] | 1000 to 5000 nM | 1000 to 5000 nM | – | – |
| Cc1ccc(-c2csc(-c3cc4c(n(-c5ccccc5C(F)(F)F)c3=O)CC(C)(C)CC4=O)n2)cc1 [Compound 71] | 300 to 1000 nM | 300 to 1000 nM | – | – |
| CCc1cccc(CC)c1-n1c(C=C(C)C)c(C(=O)N2CCNC(C(F)(F)F)C2)cc(-c2nc(-c3ccc(Cl)cc3)cs2)c1=O (stereo not drawn) [Compound 396] | < 300 nM | < 300 nM | – | – |
| CCc1cccc(CC)c1-n1c(CC(C)C)c(C(=O)NC[C@@H](C)O)cc(-c2nc(-c3ccc(Cl)cc3)cs2)c1=O [Compound 276] | 300 to 1000 nM | < 300 nM | – | – |
| CCc1cccc(CC)c1-n1c(CC(C)C)c(C(=O)NC[C@H](NC(C)=O)C(=O)O)cc(-c2nc(-c3ccc(Cl)cc3)cs2)c1=O [Compound 140] | 5000 to 20000 nM | 5000 to 20000 nM | – | – |
| CCc1cccc(CC)c1-n1c(C)c(C(=O)NC2CCOCC2)cc(-c2nc(-c3ccc(Cl)cc3)cs2)c1=O [Compound 296] | 1000 to 5000 nM | 1000 to 5000 nM | – | – |
| CCc1ncc(F)cc1-n1c(C=C(C)C)c(C(=O)N2CCNCC2)cc(-c2nc(-c3ccc(C(F)(F)F)nc3)cs2)c1=O [Compound 315] | 300 to 1000 nM | 1000 to 5000 nM | – | – |
| CCc1cccc(CC)c1-n1c2c(cc(-c3nc(-c4cnn(C)c4)c(C)s3)c1=O)C(=O)CC(C)(C)C2 [Compound 239] | 1000 to 5000 nM | 1000 to 5000 nM | – | – |
| CCc1cccc(CC)c1-n1c(C)c(C(=O)NC2CCC(N)CC2)cc(-c2nc(-c3ccc(Cl)cc3)cs2)c1=O (stereo not drawn) [Compound 237] | 5000 to 20000 nM | 5000 to 20000 nM | – | – |
| CCc1cccc(CC)c1-n1c(CC(C)C)c(C(=O)N2CCNCC2c2ccccc2)cc(-c2nc(-c3ccc(Cl)cc3)cs2)c1=O (stereo not drawn) [Compound 145] | 300 to 1000 nM | < 300 nM | – | – |
| CCOc1cccc(CC)c1-n1c(C=C(C)C)c(C(=O)N2CCNCC2)cc(-c2nc(-c3ccc(Cl)cc3)cs2)c1=O [Compound 578] | – | – | < 300 nM | < 300 nM |
| CCc1cccc(CC)c1-n1c(CC(C)C)c(C(=O)N2CCNCC2)cc(-c2ccn(-c3ccccc3)n2)c1=O [Compound 104] | 1000 to 5000 nM | 1000 to 5000 nM | – | – |
| CCc1cccc(CC)c1-n1c(C)c(C(=O)N2CCCCC2C(=O)O)cc(-c2nc(-c3ccc(Cl)cc3)cs2)c1=O (stereo not drawn) [Compound 67] | 1000 to 5000 nM | 5000 to 20000 nM | – | – |
| CCc1cccc(F)c1-n1c(C=C(C)C)c(C(=O)N2CCNCC2)cc(-c2nc(-c3ccc(Cl)cc3)cs2)c1=O [Compound 655] | < 300 nM | < 300 nM | – | – |
| CC1(C)CC(=O)c2cc(-c3nc(-c4ccc(Cl)cc4)cs3)c(=O)n(-c3ccc(Cl)cc3Cl)c2C1 [Compound 441] | – | – | > 20000 nM | 5000 to 20000 nM |
| COc1ccc(C(N)=O)cc1-n1c2c(cc(-c3nc(-c4ccc(Cl)cc4)cs3)c1=O)C(=O)CC(C)(C)C2 [Compound 423] | – | – | 1000 to 5000 nM | 1000 to 5000 nM |
| CCc1cccc(CC)c1-n1c(C=C(C)C)c(C(=O)N2CCNCC2)cc(-c2ccn(-c3ccc(OC4CC4)cc3)n2)c1=O [Compound 415] | – | – | < 300 nM | < 300 nM |
| CCc1cccc(CC)c1-n1c(C=C(C)C)c(C(=O)N2CCNCC2COC)cc(-c2nc(-c3ccc(Cl)cc3)cs2)c1=O (stereo not drawn) [Compound 536] | – | – | < 300 nM | < 300 nM |
| CCc1cccc(CC)c1-n1c(CC2CCCCC2)c(C(=O)N2CCNCC2)cc(-c2nc(-c3ccc(Cl)cc3)cs2)c1=O [Compound 612] | – | – | < 300 nM | < 300 nM |
| CCc1cccc(CC)c1-n1c(C(C)C)c(C(=O)NC)cc(-c2nc(-c3ccc(Cl)cc3)cs2)c1=O [Compound 32] | 300 to 1000 nM | 300 to 1000 nM | – | – |
| CCc1cccc(CC)c1-n1c2c(cc(C(=O)N(C)Cc3ccc(Cl)cc3)c1=O)C(=O)CC(C)(C)C2 [Compound 309] | 5000 to 20000 nM | 5000 to 20000 nM | – | – |
